Assay results taken from US8173384B2, “Methods for analyzing or processing a heparin sample” (Massachusetts Institute of Technology, priority 2000, dated 2012).
Like-named read-outs stand apart in the source and are kept apart here.

Tests used:
factor Xa (FXa) = test: Anti-Xa assay (factor Xa generation inhibition; factor Xa from serum or purified); format: biochemical
Protocol: (§1) Biological Measurements of Decasaccharide Activity. In vitro anticoagulant activity was determined as described previously (Hoppensteadt, D. A., Jeske, W. P., Walenga, J. M., Fu, K., Yang, L. H., Ing, T. S., Herbert, J. M. & Fareed, J. (1999) Thromb Res 96, 115-24 and Dietrich, C. P., Paiva, J. F., Castro, R. A., Chavante, S. F., Jeske, W., Fareed, J., Gorin, P. A., Mendes, A. & Nader, H. B. (1999) Biochim Biophys Acta 1428, 273-83), according to the United States Pharmacopoeia. Thrombin (FIIa) and factor Xa (FXa) generation inhibition assays were completed essentially as described. Briefly, either AT-10 decasaccharide, Enoxaparin LMWH or the synthetic AT-III binding pentasaccharide (Penta 1) used in this study was dissolved in sterile saline at the designated concentrations. To this sample was added an equal volume of fibrinogen deficient plasma diluted 1:8 in 100 mM Tris-HCl (pH 8.5). In a separate sample, the same concentration of heparin oligosaccharide and actin was added in a 1:1 ratio to either Spectrozyme TH or FXa. In this manner, the intrinsic IIa and Xa generation was measured. In addition, to account for inhibition of thrombin and extrinsic generation of FXa, thromboplastin C was diluted 1:6 with either Spectrozyme TH or FXa. For all samples, the optical density was measured at 405 nm and results are expressed as a % inhibition compared to a unsupplemented saline control. […]

Thrombin (FIIa) = target: T1, Thrombin (FIIa) (Homo sapiens, UniProt P00734); test: Anti-IIa assay (thrombin generation inhibition); format: biochemical
T1 construct: purchased Ortho Diagnostic Systems, Inc. (Raritan, N.J.) Fibrindex
Protocol: as §1

whole blood = test: HepTest
Protocol: Whole blood data were also used to determine the anticoagulant activity of AT-10. The assays, activated partial thromboplastin time (APTT) and prothrombin time (PT) was conducted in a manner similar to what has been previously reported (Dietrich, C. P., Paiva, J. F., Castro, R. A., Chavante, S. F., Jeske, W., Fareed, J., Gorin, P. A., Mendes, A. & Nader, H. B. (1999) Biochim Biophys Acta 1428, 273-83). APTT reagent was obtained from Organon Teknika (Durham, N.C.) and HepTest Reagent was obtained from Haemachem (St. Louis, Mo.).

heparinase I = target: T2, heparinase I (Pedobacter heparinus, UniProt Q05819); test: Exhaustive heparinase I digestion, products by MALDI-MS; format: biochemical, Flavobacterium heparinum
T2 construct: made in house
Protocol: (§2) Digests. Heparinase I digests were completed as described (Venkataraman, G., Shriver, Z., Raman, R. & Sasisekharan, R. (1999) Science 286, 537-42 and Rhomberg, A. J., Ernst, S., Sasisekharan, R. & Biemann, K. (1998) Proc Natl Acad Sci USA 95, 4176-81). Heparinase II or III reactions were completed in essentially the same way at room temperature in 10 μM ovalbumin, 1 μM dextran sulfate, and 10 mM ethylenediamine, pH 7.0. Short digestions were completed with 50 nM enzyme for 10 minutes while exhaustive digests were completed with 200 nM enzyme overnight. Mass spectra were collected using parameters as outlined above (see also Shriver, Z., Raman, R., Venkataraman, G., Drummond, K., Turnbull, J., Toida, T., Linhardt, R., Biemann, K. & Sasisekharan, R. (2000) Proc Natl Acad Sci USA, 2000 Sep. 12; 97(19):10359-64) and calibrated externally by using signals for protonated (RG)19R and its complex with a nitrous acid-derived hexasaccharide of the sequence I2SHNS,6S I2SHNS,6S I2SMan6S
(§3) Enzymatic Action of the Heparinases Towards the AT-III Binding Site: Previously, we investigated the substrate specificity of heparinases I and II towards AT-10 (Rhomberg, A. J., Shriver, Z., Biemann, K. & Sasisekharan, R. (1998) Proc Natl Acad Sci USA 95, 12232-7 and Ernst, S., Rhomberg, A. J., Biemann, K. & Sasisekharan, R. (1998) Proc Natl Acad Sci USA 95, 4182-7). These studies, however, were carried out assuming a published structure (Toida, T., Hileman, R. E., Smith, A. E., Vlahova, P. I. & Linhardt, R. J. (1996) J Biol Chem 271, 32040-7). In light of the newly determined structure of AT-10 described herein (see also Shriver, Z., Raman, R., Venkataraman, G., Drummond, K., Turnbull, J., Toida, T., Linhardt, R., Biemann, K. & Sasisekharan, R. (2000) Proc Natl Acad Sci USA, 2000 Sep. 12; 97(19):10359-64), we reexamined the enzymatic action of heparinases I, II, and III towards oligosaccharides containing a 3-O sulfate that is critical for high affinity AT-III binding. For these studies, we used three oligosaccharides, two pentasaccharides (Penta 1 and Penta 2, FIG. 5) and a hexasaccharide (Hexa 1, FIG. 5). […]
(§4) Compositional Analysis: UFH was subjected to exhaustive depolymerization with an enzyme cocktail made up of Heparinase I, Heparinase II, and Heparinase III. […] The samples were analyzed by CE in reverse polarity with a running buffer of 50 mM tris/phosphate, 10 μM dextran sulfate, pH 2.5. […] Each sample was digested in duplicate and the experiment was repeated twice for each sample, resulting in four readings per sample. All of the 8 resulting peaks were collected, and the purity of the collected samples was checked by re-injecting into CE, and their mass was measured by offline MALDI Mass Spectrometry. […]

heparinase II = target: T3, heparinase II (Pedobacter heparinus, UniProt C6XZB6); test: Exhaustive heparinase II digestion, products by MALDI-MS; format: biochemical, Flavobacterium heparinum
T3 construct: made in house
Protocol: as §2, §3, §4

heparinase III = target: T4, heparinase III (Pedobacter heparinus, UniProt Q59289); test: Exhaustive heparinase III digestion, products by MALDI-MS; format: biochemical, Flavobacterium heparinum
T4 construct: made in house
Protocol: as §2, §3, §4

human AT-III [1] = target: T5, human AT-III (Homo sapiens, UniProt P01008); details: Desai et al. 1998; cited from earlier work
human AT-III [2] = target: T5, human AT-III; test: Equilibrium fluorescence titration of AT-III with saccharide; format: binding
Protocol: Equilibrium Fluorescence Titration Experiments. Titrations of human AT-III with either AT-10 decasaccharide or heparin were completed at 25° C. using a Fluorolog 2 machine (Spex Instruments) (Meagher, J. L., Beechem, J. M., Olson, S. T. & Gettins, P. G. (1998) J Biol Chem 273, 23283-9 and Desai, U. R., Petitou, M., Bjork, I. & Olson, S. T. (1998) J Biol Chem 273, 7478-87). […] With the pH 7.4 buffer, sodium chloride was added to a final concentration of 100 mM.
Fluorescence emission spectra were collected from 300-400 nm with a 280 nm excitation wavelength and a 5 s integration time. Briefly, the titration experiments were conducted as follows—aliquots of either decasaccharide or heparin was added to a 1 μm solution of AT-III, the solution was allowed to come to equilibrium for one minute, and an emission spectrum collected. Addition of sequential saccharide aliquots and fluorescence signal was adjusted to account for protein dilution.

T3 sequence (C6XZB6 26-772): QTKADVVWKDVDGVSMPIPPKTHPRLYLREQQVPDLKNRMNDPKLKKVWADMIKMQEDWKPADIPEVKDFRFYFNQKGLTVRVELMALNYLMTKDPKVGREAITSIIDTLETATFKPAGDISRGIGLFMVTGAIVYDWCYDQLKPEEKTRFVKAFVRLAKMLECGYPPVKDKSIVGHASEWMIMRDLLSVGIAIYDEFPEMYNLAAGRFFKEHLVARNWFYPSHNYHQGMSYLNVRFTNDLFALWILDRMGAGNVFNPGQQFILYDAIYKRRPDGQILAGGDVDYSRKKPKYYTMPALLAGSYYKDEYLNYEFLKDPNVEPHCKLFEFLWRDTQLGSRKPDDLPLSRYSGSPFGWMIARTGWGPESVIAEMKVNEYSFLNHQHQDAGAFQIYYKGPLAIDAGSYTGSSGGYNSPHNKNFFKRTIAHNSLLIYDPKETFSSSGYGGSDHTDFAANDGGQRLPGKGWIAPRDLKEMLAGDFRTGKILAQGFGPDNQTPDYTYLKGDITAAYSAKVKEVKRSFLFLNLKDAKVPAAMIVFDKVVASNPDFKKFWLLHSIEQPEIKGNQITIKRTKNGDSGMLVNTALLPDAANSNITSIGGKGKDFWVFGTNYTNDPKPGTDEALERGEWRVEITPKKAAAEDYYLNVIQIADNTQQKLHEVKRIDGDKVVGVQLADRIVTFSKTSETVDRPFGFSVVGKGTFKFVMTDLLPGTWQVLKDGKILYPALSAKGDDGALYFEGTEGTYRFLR
T2 sequence (Q05819 22-384): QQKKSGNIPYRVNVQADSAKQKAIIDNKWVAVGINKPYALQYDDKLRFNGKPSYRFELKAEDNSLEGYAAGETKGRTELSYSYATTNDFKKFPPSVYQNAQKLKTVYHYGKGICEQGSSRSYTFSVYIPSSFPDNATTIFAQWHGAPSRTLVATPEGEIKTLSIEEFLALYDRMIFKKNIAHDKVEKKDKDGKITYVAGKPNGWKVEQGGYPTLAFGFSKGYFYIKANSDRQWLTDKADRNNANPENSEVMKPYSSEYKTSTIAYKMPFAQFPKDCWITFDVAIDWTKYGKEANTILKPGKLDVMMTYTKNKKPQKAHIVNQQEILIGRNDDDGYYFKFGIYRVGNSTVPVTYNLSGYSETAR
T4 sequence (Q59289 25-659): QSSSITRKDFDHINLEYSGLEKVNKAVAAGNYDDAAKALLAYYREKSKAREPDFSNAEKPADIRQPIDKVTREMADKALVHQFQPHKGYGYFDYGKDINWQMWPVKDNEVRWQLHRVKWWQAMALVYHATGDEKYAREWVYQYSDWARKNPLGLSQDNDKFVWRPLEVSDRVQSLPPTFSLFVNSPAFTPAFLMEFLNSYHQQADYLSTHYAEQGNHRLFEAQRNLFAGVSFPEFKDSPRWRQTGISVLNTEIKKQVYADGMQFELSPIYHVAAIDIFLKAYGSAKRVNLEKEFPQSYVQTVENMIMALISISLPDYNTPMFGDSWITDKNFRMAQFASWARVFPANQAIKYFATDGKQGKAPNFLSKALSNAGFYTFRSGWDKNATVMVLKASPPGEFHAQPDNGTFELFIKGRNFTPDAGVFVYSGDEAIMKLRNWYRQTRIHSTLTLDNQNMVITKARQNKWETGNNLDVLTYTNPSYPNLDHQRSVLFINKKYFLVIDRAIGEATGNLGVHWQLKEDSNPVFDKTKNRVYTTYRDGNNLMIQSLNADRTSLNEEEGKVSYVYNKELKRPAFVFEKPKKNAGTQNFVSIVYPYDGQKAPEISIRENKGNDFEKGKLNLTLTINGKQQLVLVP

Structure (SMILES)	IC50 (factor Xa (FXa)) [µM]	anti-IIa activity (in words) (Thrombin (FIIa))	HepTest activity (in words) (whole blood)	cleavage by heparinase I (heparinase I)	cleavage by heparinase II (heparinase II)	cleavage by heparinase III (heparinase III)	affinity for AT-III, previous studies (in words) (human AT-III [1])	Kd (human AT-III [2]; pH 6.0 I=0.025, read-out: KD for AT-III) [µM]	Kd (human AT-III [2]; pH 6.2, read-out: apparent KD for AT-III) [µM]	affinity for AT-III (in words) (human AT-III [2]; pH 7.4, I=0.15)
CO[C@H]1O[C@H](COS(=O)(=O)O)[C@@H](O[C@@H]2O[C@@H](C(=O)O)[C@@H](O[C@H]3O[C@H](COS(=O)(=O)O)[C@@H](O[C@@H]4O[C@H](C(=O)O)[C@@H](O[C@H]5O[C@H](COS(=O)(=O)O)[C@@H](O)[C@H](O)[C@H]5NS(=O)(=O)O)[C@H](O)[C@H]4O)[C@H](OS(=O)(=O)O)[C@H]3NS(=O)(=O)O)[C@H](O)[C@H]2OS(=O)(=O)O)[C@H](O)[C@H]1NS(=O)(=O)O [Penta 1, HNS,6SGHNS,3S,6SI2SHNS,6S,OMe]	0.039	neither the decasaccharide nor the pentasaccharide have significant anti-IIa activity	significantly higher activity than the AT-10 decasaccharide	cleave	cleave	not cleavable	affinity similar to that of full length heparin	–	–	–
CO[C@H]1O[C@H](COS(=O)(=O)O)[C@@H](O[C@@H]2O[C@@H](C(=O)O)[C@@H](O[C@H]3O[C@H](COS(=O)(=O)O)[C@@H](O[C@@H]4O[C@H](C(=O)O)[C@@H](O[C@H]5O[C@H](COS(=O)(=O)O)[C@@H](O)[C@H](O)[C@H]5NS(=O)(=O)O)[C@H](O)[C@H]4O)[C@H](O)[C@H]3NS(=O)(=O)O)[C@H](O)[C@H]2OS(=O)(=O)O)[C@H](O)[C@H]1NS(=O)(=O)O [Penta 2, HNS,6SGHNS,6SI2SHNS,6S,OMe]	–	–	–	efficiently cleave	efficiently cleave	efficiently cleave	–	–	–	–
CC(=O)NC1C(OC2C(C(=O)O)OC(OC3C(COS(=O)(=O)O)OC(O)C(NS(=O)(=O)O)C3OS(=O)(=O)O)C(O)C2O)OC(COS(=O)(=O)O)C(OC2OC(C(=O)O)C(OC3OC(COS(=O)(=O)O)C(OC4OC(C(=O)O)C(OC5OC(COS(=O)(=O)O)C(OC6OC(C(=O)O)C(OC7OC(COS(=O)(=O)O)C(OC8OC(C(=O)O)=CC(O)C8OS(=O)(=O)O)C(O)C7NS(=O)(=O)O)C(O)C6OS(=O)(=O)O)C(O)C5NS(=O)(=O)O)C(O)C4OS(=O)(=O)O)C(O)C3NS(=O)(=O)O)C(O)C2O)C1O [AT-10, ΔU2SHNS,6SI2SHNS,6SI2SHNS,6SIHNAc,6SGHNS,3S,6S]	0.28	neither the decasaccharide nor the pentasaccharide have significant anti-IIa activity	–	–	–	–	–	0.8	0.8	very little affinity
CC(=O)NC1C(OC2C(C(=O)O)OC(OC3C(COS(=O)(=O)O)OC(O)C(NS(=O)(=O)O)C3OS(=O)(=O)O)C(O)C2O)OC(COS(=O)(=O)O)C(OC2OC(C(=O)O)C(OC3OC(COS(=O)(=O)O)C(OC4OC(C(=O)O)=CC(O)C4OS(=O)(=O)O)C(O)C3NS(=O)(=O)O)C(O)C2O)C1O [Hexa 1, ΔU2SHNS,6SIHNAc,6S, GHNS,3S,6S]	–	–	–	not cleaved	susceptible	susceptible	–	–	–	–
CC(=O)N[C@H]1[C@@H](O[C@H]2[C@H](O)[C@@H](O)[C@H](O[C@H]3[C@H](OS(=O)(=O)O)[C@@H](NS(=O)(=O)O)C(O)O[C@@H]3COS(=O)(=O)O)O[C@@H]2C(=O)O)O[C@H](COS(=O)(=O)O)[C@@H](O[C@@H]2OC(C(=O)O)=C[C@H](O)[C@H]2O)[C@@H]1O (stereo partly drawn) [ΔUHNAC,6SGHNS,3S,6S]	–	–	–	resistant to further degradation	resistant to further degradation	resistant to further degradation	–	–	–	–
